Several values for one entry are separate records, joined by “and”; a condition that tells them apart may be missing. Equal entries are not always repeated. ± gives the uncertainty stated by the source.
Assay: xn = mol fraction of the nth substance listed

CCC(C)=O + C1CCCCC1
Conditions	viscosity [mPa·s]
293.15 K, 101.33 kPa, x2 = 0.0479	0.401 ± 0.008
293.15 K, 101.33 kPa, x2 = 0.0956	0.404 ± 0.008
293.15 K, 101.33 kPa, x2 = 0.1983	0.433 ± 0.008
293.15 K, 101.33 kPa, x2 = 0.3046	0.466 ± 0.009
293.15 K, 101.33 kPa, x2 = 0.4002	0.488 ± 0.009
293.15 K, 101.33 kPa, x2 = 0.5028	0.53 ± 0.009
293.15 K, 101.33 kPa, x2 = 0.6056	0.581 ± 0.01
293.15 K, 101.33 kPa, x2 = 0.703	0.641 ± 0.011
293.15 K, 101.33 kPa, x2 = 0.8048	0.72 ± 0.012
293.15 K, 101.33 kPa, x2 = 0.9029	0.824 ± 0.014
293.15 K, 101.33 kPa, x2 = 0.9515	0.888 ± 0.014
298 K, 101.3 kPa, x2 = 0.126	0.426 ± 0.006
298 K, 101.3 kPa, x2 = 0.2633	0.448 ± 0.006
298 K, 101.3 kPa, x2 = 0.4524	0.501 ± 0.006
298 K, 101.3 kPa, x2 = 0.6037	0.554 ± 0.006
298 K, 101.3 kPa, x2 = 0.8267	0.685 ± 0.007
298.15 K, 101 kPa, x2 = 0.1	0.41 ± 0.004
298.15 K, 101 kPa, x2 = 0.2	0.425 ± 0.005
298.15 K, 101 kPa, x2 = 0.3	0.444 ± 0.005
298.15 K, 101 kPa, x2 = 0.4	0.472 ± 0.005
298.15 K, 101 kPa, x2 = 0.5	0.508 ± 0.005
298.15 K, 101 kPa, x2 = 0.6	0.548 ± 0.006
298.15 K, 101 kPa, x2 = 0.7	0.595 ± 0.006
298.15 K, 101 kPa, x2 = 0.8	0.665 ± 0.007
298.15 K, 101 kPa, x2 = 0.9	0.752 ± 0.007
298.15 K, 101.33 kPa, x2 = 0.0479	0.381 ± 0.007
298.15 K, 101.33 kPa, x2 = 0.0956	0.39 ± 0.008
298.15 K, 101.33 kPa, x2 = 0.1983	0.41 ± 0.008
298.15 K, 101.33 kPa, x2 = 0.3046	0.441 ± 0.008
298.15 K, 101.33 kPa, x2 = 0.4002	0.459 ± 0.008
298.15 K, 101.33 kPa, x2 = 0.5028	0.498 ± 0.009
298.15 K, 101.33 kPa, x2 = 0.6056	0.543 ± 0.01
298.15 K, 101.33 kPa, x2 = 0.703	0.597 ± 0.01
298.15 K, 101.33 kPa, x2 = 0.8048	0.668 ± 0.011
298.15 K, 101.33 kPa, x2 = 0.9029	0.76 ± 0.013
298.15 K, 101.33 kPa, x2 = 0.9515	0.816 ± 0.013
303.15 K, 101.33 kPa, x2 = 0.0479	0.363 ± 0.007
303.15 K, 101.33 kPa, x2 = 0.0956	0.37 ± 0.007
303.15 K, 101.33 kPa, x2 = 0.1983	0.388 ± 0.007
303.15 K, 101.33 kPa, x2 = 0.3046	0.419 ± 0.008
303.15 K, 101.33 kPa, x2 = 0.4002	0.433 ± 0.008
303.15 K, 101.33 kPa, x2 = 0.5028	0.468 ± 0.009
303.15 K, 101.33 kPa, x2 = 0.6056	0.51 ± 0.009
303.15 K, 101.33 kPa, x2 = 0.703	0.558 ± 0.01
303.15 K, 101.33 kPa, x2 = 0.8048	0.622 ± 0.011
303.15 K, 101.33 kPa, x2 = 0.9029	0.705 ± 0.012
303.15 K, 101.33 kPa, x2 = 0.9515	0.754 ± 0.013
307.35 K, 101.33 kPa, x1 = 0.1093	0.648 ± 0.01
307.35 K, 101.33 kPa, x1 = 0.361	0.504 ± 0.0093
307.35 K, 101.33 kPa, x1 = 0.4975	0.453 ± 0.0089
307.35 K, 101.33 kPa, x1 = 0.555	0.429 ± 0.0086
307.35 K, 101.33 kPa, x1 = 0.6809	0.413 ± 0.0085
307.35 K, 101.33 kPa, x1 = 0.8865	0.366 ± 0.0081
318 K, 101.3 kPa, x2 = 0.1257	0.349 ± 0.015
318 K, 101.3 kPa, x2 = 0.2611	0.3682 ± 0.015
318 K, 101.3 kPa, x2 = 0.4518	0.3996 ± 0.016
318 K, 101.3 kPa, x2 = 0.6033	0.4343 ± 0.017
318 K, 101.3 kPa, x2 = 0.8254	0.5157 ± 0.02

COC(C)=O + C1CCCCC1
viscosity [mPa·s], 101 kPa
Conditions	298.15 K	308.15 K
x1 = 0.055	0.839 ± 0.084	0.699 ± 0.07
x1 = 0.1546	0.759 ± 0.076	0.614 ± 0.062
x1 = 0.2543	0.689 ± 0.069	0.547 ± 0.055
x1 = 0.3548	0.627 ± 0.063	0.493 ± 0.05
x1 = 0.4537	0.572 ± 0.057	0.45 ± 0.045
x1 = 0.4985	0.551 ± 0.055	0.435 ± 0.044
x1 = 0.5556	0.525 ± 0.053	0.417 ± 0.042
x1 = 0.6544	0.483 ± 0.049	0.392 ± 0.039
x1 = 0.7479	0.448 ± 0.045	0.374 ± 0.038
x1 = 0.8548	0.413 ± 0.041	0.36 ± 0.036
x1 = 0.9548	–	0.352 ± 0.035

COC(C)=O + C1COCCO1
303.15 K, 101.3 kPa
Conditions	viscosity [mPa·s]
x2 = 0.1026	0.3813 ± 0.0033
x2 = 0.3032	0.4727 ± 0.0037
x2 = 0.5004	0.5895 ± 0.0042
x2 = 0.7187	0.7642 ± 0.005
x2 = 0.8981	0.9562 ± 0.006

CC(=O)OC(C)C(C)C (centres undefined) + C=CC#N
viscosity [mPa·s], 101.33 kPa
Conditions	x2 = 0.096	x2 = 0.1903	x2 = 0.287	x2 = 0.3796	x2 = 0.4771	x2 = 0.582	x2 = 0.6783	x2 = 0.7861	x2 = 0.894
298.15 K	0.761 ± 0.02	0.726 ± 0.019	0.684 ± 0.018	0.641 ± 0.017	0.595 ± 0.016	0.54 ± 0.015	0.493 ± 0.014	0.44 ± 0.013	0.388 ± 0.012
303.15 K	0.71 ± 0.019	0.681 ± 0.018	0.641 ± 0.017	0.601 ± 0.016	0.558 ± 0.015	0.51 ± 0.014	0.465 ± 0.013	0.417 ± 0.012	0.37 ± 0.011
308.15 K	0.663 ± 0.018	0.639 ± 0.017	0.604 ± 0.016	0.565 ± 0.016	0.526 ± 0.015	0.48 ± 0.014	0.44 ± 0.013	0.396 ± 0.012	0.353 ± 0.011

COCCOC + CC1COC(=O)O1
viscosity
Conditions	298.15 K	308.15 K	318.15 K
101 kPa, x1 = 0.2	1.617 ± 0.015 mPa·s and 1.616 ± 0.015 mPa·s	–	–
101 kPa, x1 = 0.45	1.009 ± 0.01 mPa·s and 1.007 ± 0.01 mPa·s	–	–
101 kPa, x1 = 0.7	0.66 ± 0.007 mPa·s and 0.659 ± 0.007 mPa·s	–	–
101.33 kPa, x1 = 0.0493	2.227 ± 0.1 mPa·s	1.833 ± 0.085 mPa·s	1.561 ± 0.074 mPa·s
101.33 kPa, x1 = 0.0999	1.96 ± 0.091 mPa·s	1.659 ± 0.078 mPa·s	1.417 ± 0.068 mPa·s
101.33 kPa, x1 = 0.1524	1.752 ± 0.082 mPa·s	1.495 ± 0.071 mPa·s	1.277 ± 0.062 mPa·s
101.33 kPa, x1 = 0.1867	1.637 ± 0.077 mPa·s	1.402 ± 0.067 mPa·s	–
101.33 kPa, x1 = 0.2298	1.507 ± 0.071 mPa·s	1.297 ± 0.062 mPa·s	1.113 ± 0.055 mPa·s
101.33 kPa, x1 = 0.2769	–	1.183 ± 0.058 mPa·s	–
101.33 kPa, x1 = 0.3128	1.289 ± 0.062 mPa·s	–	0.9676 ± 0.048 mPa·s
101.33 kPa, x1 = 0.3708	1.162 ± 0.057 mPa·s	0.9973 ± 0.049 mPa·s	0.881 ± 0.044 mPa·s
101.33 kPa, x1 = 0.4036	1.097 ± 0.054 mPa·s	0.9447 ± 0.047 mPa·s	0.8272 ± 0.042 mPa·s
101.33 kPa, x1 = 0.4686	0.9699 ± 0.048 mPa·s	–	–
101.33 kPa, x1 = 0.5193	0.8882 ± 0.045 mPa·s	0.7779 ± 0.04 mPa·s	0.6827 ± 0.036 mPa·s
101.33 kPa, x1 = 0.5704	–	0.7178 ± 0.037 mPa·s	0.6389 ± 0.034 mPa·s
101.33 kPa, x1 = 0.6382	0.7272 ± 0.038 mPa·s	–	0.5728 ± 0.031 mPa·s
101.33 kPa, x1 = 0.6767	0.6885 ± 0.036 mPa·s	0.6105 ± 0.033 mPa·s	0.5449 ± 0.03 mPa·s
101.33 kPa, x1 = 0.7589	0.6047 ± 0.032 mPa·s	–	0.4782 ± 0.027 mPa·s
101.33 kPa, x1 = 0.8103	0.5589 ± 0.03 mPa·s	0.5052 ± 0.028 mPa·s	0.4571 ± 0.026 mPa·s
101.33 kPa, x1 = 0.8432	0.5429 ± 0.03 mPa·s	0.4728 ± 0.027 mPa·s	0.4376 ± 0.025 mPa·s
101.33 kPa, x1 = 0.9035	0.4872 ± 0.027 mPa·s	0.4381 ± 0.025 mPa·s	0.397 ± 0.024 mPa·s
101.33 kPa, x1 = 0.9483	0.4564 ± 0.026 mPa·s	0.4073 ± 0.024 mPa·s	0.375 ± 0.023 mPa·s
101.33 kPa, x2 = 0.2217	0.5911 ± 0.0084 mPa·s	0.5265 ± 0.0081 mPa·s	0.4711 ± 0.0071 mPa·s
101.33 kPa, x2 = 0.3749	0.7628 ± 0.01 mPa·s	0.6716 ± 0.0098 mPa·s	0.5956 ± 0.0084 mPa·s
101.33 kPa, x2 = 0.5841	1.099 ± 0.019 mPa·s	0.9453 ± 0.015 mPa·s	0.8342 ± 0.013 mPa·s
101.33 kPa, x2 = 0.7836	1.594 ± 0.031 mPa·s	1.356 ± 0.024 mPa·s	1.168 ± 0.019 mPa·s

COC(C)=O + CC#N
303.15 K, 101.33 kPa
Conditions	viscosity [mPa·s]
x2 = 0.1087	0.3472 ± 0.0033
x2 = 0.1994	0.3482 ± 0.0033
x2 = 0.3009	0.3485 ± 0.0033
x2 = 0.4037	0.3481 ± 0.0033
x2 = 0.4994	0.3474 ± 0.0033
x2 = 0.5996	0.3461 ± 0.0033
x2 = 0.7019	0.3429 ± 0.0033
x2 = 0.7979	0.3376 ± 0.0033
x2 = 0.9006	0.3322 ± 0.0033

COc1ccccc1N + CC(=O)O
viscosity [mPa·s], 100 kPa
Conditions	x1 = 0.1011	x1 = 0.1745	x1 = 0.2562	x1 = 0.3454	x1 = 0.4852	x1 = 0.5894	x1 = 0.6674	x1 = 0.7458	x1 = 0.8979
303.15 K	1.442 ± 0.059	1.732 ± 0.07	2.053 ± 0.084	2.402 ± 0.098	2.947 ± 0.12	3.351 ± 0.14	3.652 ± 0.15	3.953 ± 0.16	4.535 ± 0.18
308.15 K	1.349 ± 0.055	1.618 ± 0.066	1.916 ± 0.078	2.24 ± 0.091	2.745 ± 0.11	3.118 ± 0.13	3.397 ± 0.14	3.676 ± 0.15	4.214 ± 0.17
313.15 K	1.257 ± 0.051	1.505 ± 0.061	1.78 ± 0.072	2.078 ± 0.085	2.541 ± 0.1	2.885 ± 0.12	3.141 ± 0.13	3.397 ± 0.14	3.891 ± 0.16
318.15 K	1.166 ± 0.047	1.394 ± 0.057	1.646 ± 0.067	1.92 ± 0.078	2.346 ± 0.095	2.662 ± 0.11	2.897 ± 0.12	3.132 ± 0.13	3.584 ± 0.15
